# Data: ChEMBL document CHEMBL3301546, “MMV Malaria Box yeast growth screening”
# How the values were obtained:
# Type in all cases: functional
# Saccharomyces cerevisiae [1] = test: (§1) MMV: Growth assays were conducted using the prototrophic S. cerevisiae strain JHY222. Each MMV compound (0.1 mM) was tested in minimal media containing dextrose as a carbon source (Yeast Nitrogen Base, Dextrose; YNBD). The growth rate in the presence of each MMV compound was calculated as follows: (i) the first 10 OD readings were averaged and subtracted from all OD readings of the corresponding curve to set the baseline of the growth curve to zero, and (ii) the area under the curve (AUC) was then calculated as the sum of all OD readings. […] A relative growth value was calculated as follows: AUC(DRUG) - AUC(DMSO)/AUC(DMSO); where AUC(DMSO) represents growth measured in a DMSO control well that was on the same microtiter plate of the drug-treated culture.
# Saccharomyces cerevisiae [2] = test: as §1, with “rich” for “minimal”, “Extract, Peptone,” for “Nitrogen Base,”, “YPD).” for “YNBD).”
# Saccharomyces cerevisiae [3] = test: as §1, with “ethanol and glycerol” for “dextrose”, “as” for “as a”, “sources” for “source”, “Ethanol, Glycerol; YNBEG).” for “Dextrose; YNBD).”
SMILES,Relative Growth (Saccharomyces cerevisiae [1]),Relative Growth (Saccharomyces cerevisiae [2]),Relative Growth (Saccharomyces cerevisiae [3])
O=C(Nc1ccc(-c2nc3cc4ccccc4cc3[nH]2)cc1)c1cccc(Br)c1,0.0231,-0.1256,0.0139
Cc1ccc(C2CC(C(F)(F)F)n3nc(C(=O)N4CCN(C(c5ccccc5)c5ccccc5)CC4)cc3N2)cc1 (centres undefined),-0.1134,0.0315,-0.019
Cc1ccc2nc(C)cc(Nc3cccc(C(F)(F)F)c3)c2c1.Cl,-0.0826,-0.0219,-0.1571
CC(C)(C)c1ccc(C(=O)Nc2c3c(nn2-c2cccc(Cl)c2)CSC3)cc1,-0.3492,-0.0819,-0.291
COc1ccc(N2CCN(C(CNC(=O)CC(C)(C)C)c3ccc4c(c3)OCO4)CC2)cc1 (centres undefined),-0.0787,0.0032,-0.1806
COc1cccc(C(=O)NC(c2ccc(C)cc2)c2cc(Cl)c3cccnc3c2O)c1 (centres undefined),0.017,-0.0292,0.1449
CCCCCCn1c(=N)n(CC(O)COc2cccc(C)c2)c2ccccc21.Cl (centres undefined),-0.1558,-0.051,-0.0105
COc1ccc(-c2cc(=O)oc3c4c(ccc23)OCN(Cc2ccc(F)cc2)C4)cc1,0.0043,0.0536,-0.013
CCOC(=O)C1(Cc2ccccc2)CCN(Cc2cccc(OC)c2O)CC1,-0.0215,-0.0248,-0.0203
CCCOCc1cc(CN2CCN(c3cccc(Cl)c3)CC2)c(O)c2ncccc12,-0.0021,-0.0331,-0.1694
O=C(Cc1ccccc1)NC(c1ccc(Cl)cc1)c1c(O)ccc2ccccc12 (centres undefined),-0.1217,0.0198,0.0388
Oc1ccc(C(=C(Cl)Cl)c2ccc(O)cc2)cc1,-0.227,0.0294,-0.5689
CCOc1ccc2c(c1)CN(Cc1ccc(Cl)cc1)CO2,-0.0363,-0.0457,-0.0581
CC(C)(C)c1ccc2c(c1)CN(Cc1ccc(Cl)cc1)CO2,-0.1149,-0.9993,-0.1101
COc1ccc(C(=O)NC(c2ccccc2Cl)c2cc(Cl)c3cccnc3c2O)cc1 (centres undefined),-1.0012,-0.3676,-1.0144
Cc1cc(=O)oc2c1ccc1oc(C(=O)c3ccccc3)c(C)c12,-0.1287,0.0119,-0.3574
COc1ccc(CN2CCN(Cc3ccccc3)CC2)c(O)c1,0.0478,-0.0119,0.0718
COc1ccc2c(c1OC)C(=O)N1c3ccccc3N=C(c3ccc(C)cc3)CC21 (centres undefined),-1.0612,-0.0173,-1.0982
CCCCCCc1cc(O)c2c3c(c(=O)oc2c1)CCC(C)C3 (centres undefined),-0.0738,-0.0517,-0.0677
CCOc1ccc(Nc2c3ccccc3nc3ccccc23)cc1.Cl,0.0198,-0.0047,0.0301
OC1=C2C(=Nc3ccccc3SC2c2ccc(Br)cc2)c2ccccc21 (centres undefined),0.0198,-0.0041,0.1502
COc1ccc(C)c2sc(N(Cc3cccnc3)C(=O)c3ccc(C#N)cc3)nc12,-0.0341,-0.0087,0.0255
CCCCCCc1cc2cc(-c3nc4ccccc4[nH]3)c(=Nc3ccccc3C)oc2cc1O,0.1107,-0.0113,-0.1213
COc1cc(OC)cc(N2C(=O)N(Cc3ccc(C(C)(C)C)cc3)c3ccccc3S2(=O)=O)c1,0.0008,-0.7249,-0.0128
COc1ccccc1N1C(=N)SC(=Cc2ccc(OCc3ccccc3F)cc2)C1=O,0.0037,0.0323,-0.0753
CCN1CCN(c2c(C(=O)c3ccccc3)cnc3cc(OC)c(OC)cc23)CC1,0.0169,-0.0459,-0.2869
Cc1ccc(S(=O)(=O)c2c(COC(=O)c3cccc(C)c3)c(-c3ccccc3)nn2C)cc1,-0.0588,0.0124,-0.0042
CCOC(=O)c1c[nH]c2c(CC)cccc2c1=O,-0.1466,-0.0665,-0.0989
